Reference: patent publication US20230085307A1, “PYRIDAZINONE COMPOUND AND HERBICIDE” (NISSAN CHEMICAL CORPORATION, priority 2019, published 2023)

Assays:
barnyard grass [1] = experiment: Test Example 3: herbicidal effect by foliage application, Wagner pot (Table 18, symbol H); type: in vivo, barnyard grass (Echinochloa crus-galli); details: 320 g/ha
Summary of the method: (§1)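 Plants were sown in alluvial soil held under 0.1–0.5 cm standing water and grown 14 days in a greenhouse at 25–30 °C. An emulsifiable formulation, water-diluted to the set dose, was then sprayed onto the foliage, and effects were scored three weeks later using previously defined criteria.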

Chinese sprangletop = experiment: Test Example 3: herbicidal effect by foliage application, Wagner pot (Table 18, symbol D); type: in vivo, chinese sprangletop (Leptochloa chinensis); details: 320 g/ha
Summary of the method: as §1

rice flat sedge = experiment: Test Example 3: herbicidal effect by foliage application, Wagner pot (Table 18, symbol E); type: in vivo, rice flat sedge (Cyperus iria); details: 320 g/ha
Summary of the method: as §1

southern crabgrass [2] = experiment: Test Example 4: herbicidal effect by soil treatment (Table 19, symbol F); type: in vivo, southern crabgrass (Digitaria ciliaris); details: amount of applied herbicide 320 g/ha
Summary of the method: (§2)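 Applied as a water-diluted emulsion, the compound was sprayed onto soil covering newly sown seeds. Evaluation came three weeks after application, in a greenhouse held at 25° C. to 30° C.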

green foxtail [3] = experiment: Test Example 4: herbicidal effect by soil treatment (Table 19, symbol G); type: in vivo, green foxtail (Setaria viridis); details: amount of applied herbicide 320 g/ha
Summary of the method: as §2

barnyard grass [4] = experiment: Test Example 4: herbicidal effect by soil treatment (Table 19, symbol H); type: in vivo, barnyard grass (Echinochloa crus-galli); details: amount of applied herbicide 320 g/ha
Summary of the method: as §2

wild oat [5] = experiment: Test Example 4: herbicidal effect by soil treatment (Table 19, symbol I); type: in vivo, wild oat (Avena fatua); details: amount of applied herbicide 320 g/ha
Summary of the method: as §2

blackgrass [6] = experiment: Test Example 4: herbicidal effect by soil treatment (Table 19, symbol J); type: in vivo, blackgrass (Alopecurus myosuroides); details: amount of applied herbicide 320 g/ha
Summary of the method: as §2

Italian ryegrass [7] = experiment: Test Example 4: herbicidal effect by soil treatment (Table 19, symbol K); type: in vivo, Italian ryegrass (Lolium multiflorum); details: amount of applied herbicide 320 g/ha
Summary of the method: as §2

windgrass [8] = experiment: Test Example 4: herbicidal effect by soil treatment (Table 19, symbol L); type: in vivo, windgrass (Apera spica-venti); details: amount of applied herbicide 320 g/ha
Summary of the method: as §2

velvetleaf [9] = experiment: Test Example 4: herbicidal effect by soil treatment (Table 19, symbol M); type: in vivo, velvetleaf (Abutilon theophrasti); details: amount of applied herbicide 320 g/ha
Summary of the method: as §2

redroot pigweed [10] = experiment: Test Example 4: herbicidal effect by soil treatment (Table 19, symbol N); type: in vivo, redroot pigweed (Amaranthus retroflexus); details: amount of applied herbicide 320 g/ha
Summary of the method: as §2

lambsquarters [11] = experiment: Test Example 4: herbicidal effect by soil treatment (Table 19, symbol O); type: in vivo, lambsquarters (Chenopodium album); details: amount of applied herbicide 320 g/ha
Summary of the method: as §2

chickweed [12] = experiment: Test Example 4: herbicidal effect by soil treatment (Table 19, symbol P); type: in vivo, common chickweed (Stellaria media); details: amount of applied herbicide 320 g/ha
Summary of the method: as §2

persian speedwell [13] = experiment: Test Example 4: herbicidal effect by soil treatment (Table 19, symbol R); type: in vivo, Persian speedwell (Veronica persica); details: amount of applied herbicide 320 g/ha
Summary of the method: as §2

southern crabgrass [14] = experiment: Test Example 5: herbicidal effect by foliage application, plastic box (Table 20, symbol F); type: in vivo, southern crabgrass (Digitaria ciliaris); details: foliage application, 320 g/ha, three weeks after application
Summary of the method: (§3)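 Sow seeds spot-wise in sterilized diluvial soil; cover with ~1.5 cm soil. Grow 14 days in greenhouse, 25° C. to 30° C. Spray foliage with emulsion diluted to predetermined amount. Rate effect after 3 weeks.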

green foxtail [15] = experiment: Test Example 5: herbicidal effect by foliage application, plastic box (Table 20, symbol G); type: in vivo, green foxtail (Setaria viridis); details: foliage application, 320 g/ha, three weeks after application
Summary of the method: as §3

barnyard grass [16] = experiment: Test Example 5: herbicidal effect by foliage application, plastic box (Table 20, symbol H); type: in vivo, barnyard grass (Echinochloa crus-galli); details: foliage application, 320 g/ha, three weeks after application
Summary of the method: as §3

wild oat [17] = experiment: Test Example 5: herbicidal effect by foliage application, plastic box (Table 20, symbol I); type: in vivo, wild oat (Avena fatua); details: foliage application, 320 g/ha, three weeks after application
Summary of the method: as §3

blackgrass [18] = experiment: Test Example 5: herbicidal effect by foliage application, plastic box (Table 20, symbol J); type: in vivo, blackgrass (Alopecurus myosuroides); details: foliage application, 320 g/ha, three weeks after application
Summary of the method: as §3

Italian ryegrass [19] = experiment: Test Example 5: herbicidal effect by foliage application, plastic box (Table 20, symbol K); type: in vivo, Italian ryegrass (Lolium multiflorum); details: foliage application, 320 g/ha, three weeks after application
Summary of the method: as §3

windgrass [20] = experiment: Test Example 5: herbicidal effect by foliage application, plastic box (Table 20, symbol L); type: in vivo, windgrass (Apera spica-venti); details: foliage application, 320 g/ha, three weeks after application
Summary of the method: as §3

velvetleaf [21] = experiment: Test Example 5: herbicidal effect by foliage application, plastic box (Table 20, symbol M); type: in vivo, velvetleaf (Abutilon theophrasti); details: foliage application, 320 g/ha, three weeks after application
Summary of the method: as §3

redroot pigweed [22] = experiment: Test Example 5: herbicidal effect by foliage application, plastic box (Table 20, symbol N); type: in vivo, redroot pigweed (Amaranthus retroflexus); details: foliage application, 320 g/ha, three weeks after application
Summary of the method: as §3

lambsquarters [23] = experiment: Test Example 5: herbicidal effect by foliage application, plastic box (Table 20, symbol O); type: in vivo, lambsquarters (Chenopodium album); details: foliage application, 320 g/ha, three weeks after application
Summary of the method: as §3

chickweed [24] = experiment: Test Example 5: herbicidal effect by foliage application, plastic box (Table 20, symbol P); type: in vivo, common chickweed (Stellaria media); details: foliage application, 320 g/ha, three weeks after application
Summary of the method: as §3

false cleavers = experiment: Test Example 5: herbicidal effect by foliage application, plastic box (Table 20, symbol Q); type: in vivo, false cleavers (Galium spurium); details: foliage application, 320 g/ha, three weeks after application
Summary of the method: as §3

persian speedwell [25] = experiment: Test Example 5: herbicidal effect by foliage application, plastic box (Table 20, symbol R); type: in vivo, Persian speedwell (Veronica persica); details: foliage application, 320 g/ha, three weeks after application
Summary of the method: as §3

Structure (SMILES): CCCC(=O)Oc1c(C)nn(C)c(=O)c1-c1c(-c2ccc(C)c(C)c2)sc2ccccc12 [1-066]
- herbicidal effect on H (barnyard grass), rating 0-5 (barnyard grass [1]): 2 (Herbicidal rate of 20% or more and less than 40%)
- herbicidal effect on D (Chinese sprangletop), rating 0-5 (Chinese sprangletop): 0 (Herbicidal rate of 5% or less (almost no effect))
- herbicidal effect on E (rice flat sedge), rating 0-5 (rice flat sedge): 5 (Herbicidal rate of 90% or more (almost completely withered))
- herbicidal effect rating, F: southern crabgrass (southern crabgrass [2]): 0 (Herbicidal rate of 5% or less (almost no effect))
- herbicidal effect rating, G: green foxtail (green foxtail [3]): 0 (Herbicidal rate of 5% or less (almost no effect))
- herbicidal effect rating, H: barnyard grass (barnyard grass [4]): 0 (Herbicidal rate of 5% or less (almost no effect))
- herbicidal effect rating, I: wild oat (wild oat [5]): 0 (Herbicidal rate of 5% or less (almost no effect))
- herbicidal effect rating, J: blackgrass (blackgrass [6]): 0 (Herbicidal rate of 5% or less (almost no effect))
- herbicidal effect rating, K: Italian ryegrass (Italian ryegrass [7]): 0 (Herbicidal rate of 5% or less (almost no effect))
- herbicidal effect rating, L: windgrass (windgrass [8]): 0 (Herbicidal rate of 5% or less (almost no effect))
- herbicidal effect rating, M: velvetleaf (velvetleaf [9]): 0 (Herbicidal rate of 5% or less (almost no effect))
- herbicidal effect rating, N: redroot pigweed (redroot pigweed [10]): 0 (Herbicidal rate of 5% or less (almost no effect))
- herbicidal effect rating, O: lambsquarters (lambsquarters [11]): 0 (Herbicidal rate of 5% or less (almost no effect))
- herbicidal effect rating, P: chickweed (chickweed [12]): 2 (Herbicidal rate of 20% or more and less than 40%)
- herbicidal effect rating, R: persian speedwell (persian speedwell [13]): 4 (Herbicidal rate of 70% or more and less than 90%)
- herbicidal effect grade, F: southern crabgrass (southern crabgrass [14]): 2 (Herbicidal rate of 20% or more and less than 40%)
- herbicidal effect grade, G: green foxtail (green foxtail [15]): 3 (Herbicidal rate of 40% or more and less than 70%)
- herbicidal effect grade, H: barnyard grass (barnyard grass [16]): 2 (Herbicidal rate of 20% or more and less than 40%)
- herbicidal effect grade, I: wild oat (wild oat [17]): 1 (Herbicidal rate of 5% or more and less than 20%)
- herbicidal effect grade, J: blackgrass (blackgrass [18]): 0 (Herbicidal rate of 5% or less (almost no effect))
- herbicidal effect grade, K: Italian ryegrass (Italian ryegrass [19]): 0 (Herbicidal rate of 5% or less (almost no effect))
- herbicidal effect grade, L: windgrass (windgrass [20]): 0 (Herbicidal rate of 5% or less (almost no effect))
- herbicidal effect grade, M: velvetleaf (velvetleaf [21]): 4 (Herbicidal rate of 70% or more and less than 90%)
- herbicidal effect grade, N: redroot pigweed (redroot pigweed [22]): 4 (Herbicidal rate of 70% or more and less than 90%)
- herbicidal effect grade, O: lambsquarters (lambsquarters [23]): 0 (Herbicidal rate of 5% or less (almost no effect))
- herbicidal effect grade, P: chickweed (chickweed [24]): 5 (Herbicidal rate of 90% or more (almost completely withered))
- herbicidal effect grade, Q: false cleavers (false cleavers): 2 (Herbicidal rate of 20% or more and less than 40%)
- herbicidal effect grade, R: persian speedwell (persian speedwell [25]): 5 (Herbicidal rate of 90% or more (almost completely withered))
